# Measurements: US10588910B2, “Pharmaceutical composition comprising epidithiodioxopiperazine compound or derivative thereof, or pharmaceutically acceptable salt thereof, for preventing or treating pulmonary hypertension” (priority 2016, dated 2020)
# Values joined by “and” are separate entries in the source; they are usually repeats but may differ in a detail not shown here. Equal values may be shown once.
# Test system: rat models in which pulmonary arterial hypertension is induced by monocrotaline (MCT)
# Assay: Monocrotaline-induced pulmonary arterial hypertension rat model: heart mass, RV/(LV+septum) ratio, pulmonary arterial wall thickness (H&E)
# Type: in vivo, Male SD rats
# Conditions: for hypertrophy of the right ventricle and pulmonary artery intimal thickening: animals with pulmonary arterial hypertension induced by monocrotaline; for hypertrophy of the right ventricle and pulmonary artery intimal thickening / therapeutic effect on pulmonary arterial hypertension: summary statement; for Total mass (heart) / LV + Septum (mass), Average / RV (right ventricle mass), Average / RV/LV + Septum, Average / Total mass (heart), Average / LV + Septum (mass) / RV (right ventricle mass) / RV/LV + Septum: 3 weeks; for Total mass (heart) / LV + Septum (mass) / RV (right ventricle mass) / RV/LV + Septum: individual rats; for LV + Septum (mass), Average / RV (right ventricle mass), Average / RV/LV + Septum, Average / Total mass (heart), Average: group average
# Experimental: Male SD rats weighing approximately 210 g were used as animal models. In order to induce pulmonary arterial hypertension, a single intraperitoneal injection of monocrotaline (MCT) at a dose of 60 mg/kg was carried out. Accordingly, the rat models in which pulmonary arterial hypertension is induced were maintained for 3 weeks while test drugs were administered or not administered, and then the rat models were sacrificed. Thereafter, the hearts were excised and analyzed.
# Chaetocin (the compound of Formula 2), which is a representative epidithiodioxopiperazine compound, was administered as a test drug to the pulmonary arterial hypertension animal models prepared according to Preparation Example 1 above at each dose of 6 μg, 12 μg, and 30 μg every 3 days. Normal rats in which MCT is not administered were used as the control group; and rats in which pulmonary arterial hypertension is induced by administering only MCT were used as the MCT group. The control group and each experimental group consisted of 3 to 4 rats.
# The hearts were excised as in Preparation Example 1, and the excised hearts were measured for their total mass. Thereafter, the right ventricle (RV) was separated and the masses of each of the right ventricle, left ventricle, and cardiac septum (LV+septum) were separately measured to calculate the ratio. The results of the measurement of each experimental animal, the normal rats (control group), the MCT group, and the experimental groups (chaetocin groups; MCT+(dose μg)) in which chaetocin is administered at each dose of 30 μg, 12 μg, and 6 μg are shown in order in Tables 1 to 5.
# Further, the sizes of the excised entire hearts and separated right ventricles were visually observed (FIG. 1), and the thicknesses of the pulmonary arterial walls were measured by H&E staining (FIGS. 2 to 11). In addition, in order to visualize the difference in the heart and pulmonary artery according to the dose-dependent chaetocin administration after the pulmonary arterial hypertension induction in the pulmonary arterial hypertension model, the average values of the heart mass, the ratio of the right ventricle to the left ventricle, and the thickness of the pulmonary artery wall, which are calculated from the hearts excised from each animal model, are shown in FIGS. 12 to 14, respectively. […]
# [1] = MCT rats, chaetocin 6 μg every 3 days
# [2] = MCT rats, chaetocin 12 μg every 3 days
# [3] = MCT rats, chaetocin 30 μg every 3 days
compound,measurement,setting,value
"CN1C(=O)C2SSC1C(=O)N2C [5,7-Dimethyl-2,3-dithia-5,7-diazabicyclo[2.2.2]octane-6,8-dione]",hypertrophy of the right ventricle and pulmonary artery intimal thickening,,reduced to a level similar to normal
same,therapeutic effect on pulmonary arterial hypertension,,excellent therapeutic effect
CN1C(=O)C23CC4(C56CC78SSC(CO)(C(=O)N7C5Nc5ccccc56)N(C)C8=O)c5ccccc5NC4N2C(=O)C1(CO)SS3 (stereo not shown) [chaetocin],Total mass (heart),"MCT 60 mg/kg i.p. rats, chaetocin 30 μg every 3 days",1185 mg and 865 mg and 1135 mg and 1258 mg
same,"LV + Septum (mass), Average",[1],718.3 mg
same,"RV (right ventricle mass), Average",[1],190.0 mg
same,"RV/LV + Septum, Average",[1],0.26
same,"Total mass (heart), Average",[1],908.3 mg
same,LV + Septum (mass),[1],732 mg and 681 mg and 742 mg
same,RV (right ventricle mass),[1],190 mg and 175 mg and 205 mg
same,RV/LV + Septum,[1],0.26 (2×) and 0.28
same,Total mass (heart),[1],922 mg and 856 mg and 947 mg
same,"LV + Septum (mass), Average",[2],935.7 mg
same,"RV (right ventricle mass), Average",[2],259.0 mg
same,"RV/LV + Septum, Average",[2],0.28
same,"Total mass (heart), Average",[2],1194.7 mg
same,LV + Septum (mass),[2],913 mg and 968 mg and 926 mg
same,RV (right ventricle mass),[2],261 mg and 295 mg and 221 mg
same,RV/LV + Septum,[2],0.29 and 0.30 and 0.24
same,Total mass (heart),[2],1174 mg and 1263 mg and 1147 mg
same,"LV + Septum (mass), Average",[3],870.8 mg
same,"RV (right ventricle mass), Average",[3],240.0 mg
same,"RV/LV + Septum, Average",[3],0.3
same,"Total mass (heart), Average",[3],1110.8 mg
same,LV + Septum (mass),[3],921 mg and 689 mg and 874 mg and 999 mg
same,RV (right ventricle mass),[3],264 mg and 176 mg and 261 mg and 259 mg
same,RV/LV + Septum,[3],0.29 and 0.26 (2×) and 0.30
same,hypertrophy of the right ventricle and pulmonary artery intimal thickening,,reduced to a level similar to normal
same,therapeutic effect on pulmonary arterial hypertension,,excellent therapeutic effect
